In patent publication US20160213619A1, “INTRAORALLY DISINTEGRABLE TABLET COMPRISING DISINTEGRABLE GRANULAR COMPOSITION” (DAICEL CORPORATION, priority 2013, published 2016):

Experiment: distribution coefficient (log P), measured between n-octanol and water
Assay type: physicochemical
Conditions: experimental value, read-out: logP Observed
Experimental: On the other hand, the measured value of the distribution coefficient is calculated by the following equation using a concentration of a medicinal ingredient dissolved in each of two phases of water and n-octanol, which is obtained by a conventional quantitative method such as absorption spectrophotometry, gas chromatography or liquid chromatography:
Log P=Log [(concentration of the medicinal ingredient in n-octanol phase)/(concentration of the medicinal ingredient in water phase)

## O=C1O[C@H]([C@@H](O)CO)C(O)=C1O [ascorbic acid]
  logP: -2.15

## CCOc1ccccc1C(N)=O [ethenzamide]
  logP: 1.39
